# Measurements reported in patent US10238688B2, “Combination therapies for bladder cancer” (GENEDIA BIOTECH CO. LTD., priority 2015, dated 2019).
# Columns and labels:
# Assay type in all cases: cell-based, human
# Heat Shock pathway = assay: Cignal Finder dual-luciferase pathway reporter, Heat Shock; parameters: key to Relative activity, Heat Shock reporter: firefly/renilla ratio, background (negative control) subtracted; conditions: for Relative activity, Heat Shock reporter: luc/Renluc relative to negative control reporter, single drug at 4 folds vs EH/Ci/Mi combination
# Experimental: (§1) The pathway analysis was performed with Qiagen's Cignal Finder Pathway Reporter Array systems according to the manufacturer's instructions. The pathway-focused dual-luciferase reporter construct was a mixture of an inducible transcription factor responsive firefly luciferase reporter and constitutively expressing renilla construct. Transcriptional response element (TRE) sequence response elements to each specific transcriptional factor triggered by the different signaling pathways are positioned before the TATA box of firefly luciferase reporter gene. The extent of activity of the reporter reflects the level of activity of the particular signaling pathway. CMV controlled renilla expression vector is co-transfected into the cell as an internal control. Non-inducible reporter construct that lacks the transcriptional factor binding sequence and could not be induced by any transcription factors is used as a negative control. Cells transfected with CMV directed firefly luciferase reporter gene serve as a positive control. Briefly, cells seeded in 6-well plates were transfected with Cignal finder pathway arrays according to the manufacturer's instructions (Qiagen). Then cells were seeded onto 96-well plates. […] After 6 h of incubation with the different drugs at 37° C., cells were lysed and a dual luciferase assay (for firefly and renilla luciferase) was performed using a PromegaGloMax 20/20 illuminometer. The firefly luciferase activities were normalized over the renilla luciferase activities after background activity determined by luciferase activities of negative controls was subtracted. A triple test of cell survival under these drug doses was also performed by MTT assay following 18 h incubation at 37° C. […]
# H-bc = assay: MTT cell survival / IC50, H-bc cells
# Experimental: (§2) The clinical grade of the chemotherapeutics (NCI Dictionary of Cancer Terms) was provided by the First Affiliated Hospital of Harbin Medical University: Pirarubicin (Pi, Wanle, Shenzhen), Paclitaxel (Pa, Taiji, Sichuan), Adriamycin (Ad, Pfizer, Jiangsu), Epirubicin Hydrochloride (EH, Haizheng, Zhejiang), Hydroxycamptothecin (Hy, Lishizhen, Hubei), Cisplatin (Ci, Haosen, Jiangsu), Gemcitabine (Ge, Haosen, Jiangsu) and Mitomycin (Mi, Haizheng, Zhejiang). The drug induced cell death was determined by a thiazolyl […] (MTT, 490 nm reading) based cell proliferation assay in the cultured cells following treatment by various concentrations of drugs for 72 hours. The relative chemoresistance to each drug of all cell lines was calculated with the lowest IC50 as a reference. The overall chemoresistance of each cell line was described as “chemoresistance index”, the numerator of the total relative IC50 to all the drugs over the number of drugs to rank the overall resistance state of each cell line to the six chemotherapeutics collectively.
# (§3) The relative IC50 (fold) of each drug of all nine cell lines was normalized to the lowest IC50 in the most sensitive cell line (FIG. 2G), to describe the single drug resistance of cell lines. The overall chemoresistance of each cell line, a “chemoresistance index” (the numerator of the total relative IC50 over the number of drugs) (FIG. 2G) were calculated to rank the overall resistance state of each cell line to this six chemotherapeutics.
# (§4) Twenty six-drug combinations at the indicated doses were initially generated through a random number generator (using MATLAB MathWorks©, Natick, Mass., U.S.) (The upper half of Table 1). The cell survival (% over the not drug control) of treated cells was determined and then used for a calculation of the average cumulative cell survival (%, ACS: the sum of cell survival (%) per combination divided by the number of cell lines tested). ACS<30% was used to separate the effective from the not-effective combinations.
# UM-UC-3 = assay: MTT cell survival / IC50, UM-UC-3 cells
# Experimental: as §2, §3, §4
# EJ = assay: MTT cell survival / IC50, EJ cells
# Experimental: as §2, §3, §4
# Myc/Max pathway = assay: Cignal Finder dual-luciferase pathway reporter, Myc/Max; conditions: for Relative activity, Myc/Max reporter: luc/Renluc relative to negative control reporter, single drug at 4 folds vs EH/Ci/Mi combination
# Experimental: as §1
smiles,measurement,setting,value
"COC12C(COC(N)=O)C3=C(C(=O)C(C)=C(N)C3=O)N1CC1NC12 (stereo not drawn) [Mi, [6-Amino-8a-methoxy-5-methyl-4,7-dioxo-1,1a,2,4,7,8,8a,8b-octahydroazireno [2′,3′:3,4]pyrrolo[1,2-a]indol-8-yl]methyl carbamate]","digitalized pathway activity, Heat Shock",Heat Shock pathway; 5637 cells,0 (null (0) if neither of the above holds)
same,"relative drug trigged pathway activity over the no-drug level, Heat Shock",Heat Shock pathway; 5637 cells,1.38 fold
same,"Relative activity, Heat Shock reporter",Heat Shock pathway; 5637 cells,19.47
same,"relative drug trigged pathway activity over the no-drug level, Heat Shock",Heat Shock pathway; Biu87 cells,4.54 fold
same,"Relative activity, Heat Shock reporter",Heat Shock pathway; Biu87 cells,8.60
same,"relative drug trigged pathway activity over the no-drug level, Heat Shock",Heat Shock pathway; H-bc cells,0.3 fold
same,"Relative activity, Heat Shock reporter",Heat Shock pathway; H-bc cells,1.12
same,"digitalized pathway activity, Heat Shock",Heat Shock pathway; SV-HUC-1 cells,0 (null (0) if neither of the above holds)
same,"relative drug trigged pathway activity over the no-drug level, Heat Shock",Heat Shock pathway; SV-HUC-1 cells,1.01 fold
same,"Relative activity, Heat Shock reporter",Heat Shock pathway; SV-HUC-1 cells,40.00
same,"digitalized pathway activity, Heat Shock",Heat Shock pathway; UM-UC-3 cells,0 (null (0) if neither of the above holds)
same,"Relative activity, Heat Shock reporter",Heat Shock pathway; UM-UC-3 cells,4.03
same,"relative drug trigged pathway activity over the no-drug level, Heat Shock",Heat Shock pathway; Um-Uc-3 cells,0.93 fold
same,Cell survival 72 hours,"H-bc; H-bc cells, Table 4 (A)",81.16%
same,ACS (%),"H-bc; H-bc cells, Table 4 (B)",81.16%
same,Cell survival (%),"H-bc; H-bc, Table S3, ng/ml: Pi 40, Pa 160, EH 250, Ci 1500, Mi 200, 1=Ci/Mi, 2=EH/Ci/Mi, 3=Pa/Ci/Mi, 4=Pi/Ci/Mi",91.67%
same,Single drug 4X Cell Survival (%),"H-bc; H-bc, ng/ml: EH 1000, Ci 6000, Mi 800, Pi 160, Pa 640, Ge 20, EH/Ci/Mi regimen",81.16%
same,Cell survival (%),"UM-UC-3; UM-UC-3, Table S3, ng/ml: Pi 40, Pa 160, EH 250, Ci 1500, Mi 200, 1=Ci/Mi, 2=EH/Ci/Mi, 3=Pa/Ci/Mi, 4=Pi/Ci/Mi",66.2%
same,Single drug 4X Cell Survival (%),"UM-UC-3; UM-UC-3, ng/ml: EH 1000, Ci 6000, Mi 800, Pi 160, Pa 640, Ge 20, EH/Ci/Mi regimen",54.74%
same,ACS (%),"UM-UC-3; UM-UC-3 cells, Table 4 (B)",54.71%
same,Cell survival 72 hours,"UM-UC-3; Um-Uc-3 cells, Table 4 (A)",54.71%
same,Cell survival (%),"EJ; Table S3, ng/ml: Pi 40, Pa 160, EH 250, Ci 1500, Mi 200, 1=Ci/Mi, 2=EH/Ci/Mi, 3=Pa/Ci/Mi, 4=Pi/Ci/Mi",45.2%
same,Single drug 4X Cell Survival (%),"EJ; ng/ml: EH 1000, Ci 6000, Mi 800, Pi 160, Pa 640, Ge 20, EH/Ci/Mi regimen",28.67%
same,"relative drug trigged pathway activity over the no-drug level, Myc/Max",Myc/Max pathway; 5637 cells,1.97 fold
same,"Relative activity, Myc/Max reporter",Myc/Max pathway; 5637 cells,21.77
same,"digitalized pathway activity, Myc/Max",Myc/Max pathway; Biu87 cells,0 (null (0) if neither of the above holds)
same,"relative drug trigged pathway activity over the no-drug level, Myc/Max",Myc/Max pathway; Biu87 cells,1.16 fold
same,"Relative activity, Myc/Max reporter",Myc/Max pathway; Biu87 cells,9.49
same,"digitalized pathway activity, Myc/Max",Myc/Max pathway; H-bc cells,0 (null (0) if neither of the above holds)
same,"relative drug trigged pathway activity over the no-drug level, Myc/Max",Myc/Max pathway; H-bc cells,0.75 fold
same,"Relative activity, Myc/Max reporter",Myc/Max pathway; H-bc cells,9.86
same,"digitalized pathway activity, Myc/Max",Myc/Max pathway; SV-HUC-1 cells,0 (null (0) if neither of the above holds)
same,"relative drug trigged pathway activity over the no-drug level, Myc/Max",Myc/Max pathway; SV-HUC-1 cells,1.45 fold
same,"Relative activity, Myc/Max reporter",Myc/Max pathway; SV-HUC-1 cells,160.00
same,"Relative activity, Myc/Max reporter",Myc/Max pathway; UM-UC-3 cells,22.41
same,"relative drug trigged pathway activity over the no-drug level, Myc/Max",Myc/Max pathway; Um-Uc-3 cells,0.38 fold
